Assays:
Assay in all cases: relative viability (nuclei count vs DMSO), 5 days (fraction); higher = more cells survive
Shikonin = compound: CC(C)=CC[C@@H](O)C1=CC(=O)c2c(O)ccc(O)c2C1=O [Shikonin]
How it was run: (§1)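 Five library-drug doses, separated by factors of √10, were pinned into 1536-well plates holding lung cancer cell lines after an overnight stay at 37 °C. Cells were fixed, permeabilised and Hoechst-stained in one step after 5 days without medium change, then imaged at 4×. Viability compares treated-well with vehicle-well nuclei, counted in MetaXpress, as a median across plates. Passing plates had control CV below 25% and at least one doubling.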

[1] = compound: CC(C)N(CCCNC(=O)Nc1ccc(C(C)(C)C)cc1)C[C@H]1O[C@@H](n2ccc3c(N)ncnc32)[C@H](O)[C@@H]1O
How it was run: as §1

[2] = compound: CC(C)N(CCCNC(=O)Nc1ccc(C(C)(C)C)cc1)C[C@H]1O[C@@H](n2ccc3c(N)ncnc32)[C@H](O)[C@@H]1O + CC(C)C[C@H](NC(=O)[C@H](Cc1ccccc1)NC(=O)c1cnccn1)B(O)O [Bortezomib] (partner 0.002 µM)
How it was run: (§2)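 The day after seeding in 1536-well plates, lung cancer cell lines were treated by pin tool with a single drug, or with a fixed anchor-drug dose together with five library-drug doses (not always all listed) in √10 steps. After 5 days, a combined fix-and-stain solution (final 0.05% Triton X-100, 1% formaldehyde, 1 ug/ml Hoechst) was added. Nuclei counted on 4× images gave relative viability as treated counts over vehicle counts, reported as the median of duplicate plates.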

Shikonin + Alpelisib = compound: CC(C)=CC[C@@H](O)C1=CC(=O)c2c(O)ccc(O)c2C1=O [Shikonin] + Cc1nc(NC(=O)N2CCC[C@H]2C(N)=O)sc1-c1ccnc(C(C)(C)C(F)(F)F)c1 [Alpelisib] (partner 2 µM)
How it was run: as §2

Cell Line	relative viability (Shikonin; 0.01 µM)	relative viability (Shikonin; 0.1 µM)	relative viability (Shikonin; 0.3162 µM)	relative viability (Shikonin; 1 µM)	relative viability ([1]; 0.08 µM)	relative viability ([1]; 0.253 µM)	relative viability ([1]; 0.8 µM)	relative viability ([1]; 2.53 µM)	relative viability ([1]; 8 µM)	relative viability ([2]; first compound 0.08 µM)	relative viability ([2]; first compound 0.253 µM)	relative viability ([2]; first compound 0.8 µM)	relative viability ([2]; first compound 2.53 µM)	relative viability ([2]; first compound 8 µM)	relative viability (Shikonin + Alpelisib; first compound 0.01 µM)	relative viability (Shikonin + Alpelisib; first compound 0.1 µM)	relative viability (Shikonin + Alpelisib; first compound 0.3162 µM)	relative viability (Shikonin + Alpelisib; first compound 1 µM)
Calu-6	1.05	1.11	1.04	0.93	1	1.03	0.996	1.04	0.966	1.02	0.999	1.06	1	1.01	0.921	1.23	0.88	0.934
EBC-1	1.06	0.997	1.05	0.962	0.926	0.96	0.874	0.941	0.808	0.508	0.549	0.486	0.466	0.473	0.829	0.809	0.85	0.843
NCI-H1993	0.915	1.01	0.94	0.974	0.86	–	0.905	0.919	0.922	0.96	0.912	0.915	1.13	1.16	–	0.662	0.661	0.699
A-427	1.03	1.17	1.02	1.16	0.962	0.93	1.03	0.958	0.984	0.927	0.973	0.996	1.01	0.967	1.12	1.2	1.07	1.13
NCI-H2405	0.998	1.04	1.08	1.02	1.02	0.974	0.931	1.06	0.966	0.986	0.989	0.918	0.994	0.819	0.742	0.798	0.864	0.761
NCI-H1355	0.981	1.08	1.02	1.04	0.913	0.915	0.75	1.03	0.879	1.15	1.2	–	1.22	1.08	0.819	0.823	0.943	0.927
SK-LU-1	1.05	1.05	1.21	1.03	1.01	1.06	0.989	1.1	0.941	1.22	1.02	1.18	1.31	1.03	1	1.09	0.965	0.8
NCI-H23	1.02	1.11	1	0.981	0.912	0.707	1.07	0.931	0.9	0.837	–	0.523	0.94	1.17	0.76	0.65	0.804	0.659
HOP-62	1.15	1.11	1.23	1.02	1.04	1.06	0.856	0.939	0.879	0.599	0.854	0.132	0.605	0.361	1.11	1.37	1.2	0.707
HARA	0.931	1.21	1.07	1.22	0.882	0.954	0.62	0.774	0.784	1.13	1.15	0.604	1.03	1.02	0.871	0.871	0.923	0.917
PC-3 [JPC-3]	1.1	1.05	1.09	1.07	0.969	1.06	0.883	1.03	0.934	0.79	0.927	0.317	0.749	0.815	1.04	1.11	1.05	1.08
NCI-H1755	1.03	1.01	1.12	1	1.01	0.944	0.856	0.926	0.913	0.934	0.914	0.467	0.929	0.878	1.02	0.946	1.07	0.97
HCC-78	0.942	1.14	1.04	1.15	1.05	0.787	0.942	0.875	1	0.488	–	0.213	0.305	0.577	0.311	0.347	0.352	0.349
IA-LM	1.13	0.875	1.05	0.859	1.02	0.879	1.02	0.963	0.84	0.81	0.693	0.752	0.689	0.712	0.862	0.667	0.637	0.69
NCI-H441	1.24	0.942	1.18	0.975	1.01	1.06	–	1.1	0.981	–	0.488	0.144	0.875	0.819	1.14	0.874	0.508	0.729
NCI-H322M	0.924	0.917	0.921	1.06	0.929	0.893	0.93	0.918	0.975	1.11	1.13	1.12	1.39	1.38	0.73	0.77	0.856	0.857
NCI-H520	0.947	1.06	0.977	0.931	0.882	0.773	0.793	0.98	0.939	0.581	0.179	0.155	0.647	0.524	–	1.25	0.902	0.961
COR-L23	1.18	1.02	1.12	0.995	1.04	1.03	1.08	1.01	1.02	0.87	0.968	0.464	1.1	0.929	0.845	0.913	0.86	0.719

Cell Line	relative viability (Shikonin; 0.01 µM)	relative viability (Shikonin; 0.1 µM)	relative viability (Shikonin; 0.3162 µM)	relative viability (Shikonin; 1 µM)	relative viability ([1]; 0.08 µM)	relative viability ([1]; 0.253 µM)	relative viability ([1]; 0.8 µM)	relative viability ([1]; 2.53 µM)	relative viability ([1]; 8 µM)	relative viability ([2]; first compound 0.08 µM)	relative viability ([2]; first compound 0.253 µM)	relative viability ([2]; first compound 0.8 µM)	relative viability ([2]; first compound 2.53 µM)	relative viability ([2]; first compound 8 µM)	relative viability (Shikonin + Alpelisib; first compound 0.01 µM)	relative viability (Shikonin + Alpelisib; first compound 0.1 µM)	relative viability (Shikonin + Alpelisib; first compound 0.3162 µM)	relative viability (Shikonin + Alpelisib; first compound 1 µM)
NCI-H2126	1.01	1.07	1.07	1.03	0.955	0.918	0.942	0.961	0.905	1.03	1.12	1.14	1.08	1.05	0.764	0.843	0.786	0.763
LC-2-ad	0.965	1.05	1.01	1.01	0.978	1.03	0.731	0.944	0.882	0.968	1.2	0.65	0.978	0.878	0.921	0.944	0.925	0.912
NCI-H1915	1.07	1.17	1.05	1.06	0.957	1.01	0.848	0.947	0.942	0.911	0.972	0.622	0.894	0.935	1.09	1.12	1.13	1.04
NCI-H2085	0.992	1.05	0.985	0.983	0.93	0.905	1.03	1.02	0.983	1.02	0.925	0.749	1.09	0.907	0.986	0.913	0.905	0.685
COR-L 105	0.979	0.973	0.911	0.855	0.887	0.943	0.921	0.943	0.923	0.719	0.537	0.719	0.744	0.75	1.09	1.18	1.07	0.728
SW 1573	1.1	0.967	0.894	0.721	0.968	0.966	1.07	1.11	0.984	1.13	1.07	1.06	1.12	0.864	0.816	0.888	0.801	0.657
LXF-289	1.08	0.999	1.08	0.992	0.97	1.03	0.923	1.03	0.95	1	0.993	0.719	1.03	0.98	1.12	0.963	1.02	1.03
RERF-LC-KJ	1.09	0.986	1.02	1.03	0.951	1.05	0.966	0.968	0.912	0.97	1.15	1.09	1.04	0.971	0.78	0.732	0.798	0.787
NCI-H727	0.916	1.03	0.933	1.02	0.867	0.815	0.868	0.931	0.943	0.829	0.696	0.583	0.935	0.734	0.447	0.547	0.62	0.405
NCI-H1666	0.966	1.02	1.08	1.05	1.06	1.03	0.975	1.05	0.914	0.802	0.775	0.613	0.83	0.697	0.915	0.964	1.07	0.856
NCI-H2087	1.33	1.02	1.12	1.02	1.08	0.934	0.799	1.15	1.07	0.861	0.841	0.25	0.99	0.857	1.15	0.967	1.12	1.04
NCI-H1734	0.935	1.15	1.02	0.991	0.926	0.804	0.962	0.949	0.916	0.701	0.921	0.355	0.973	0.847	0.7	0.722	0.788	0.663
NCI-H2228	1.07	0.991	1.12	1.17	0.925	1	0.903	0.949	1.09	0.788	–	0.377	0.825	1.19	0.66	0.781	0.73	0.556
EMC-BAC-2	0.97	0.997	1.11	1.13	0.943	0.928	1.03	0.905	0.889	1	1.12	0.948	0.994	0.904	0.77	0.803	0.78	0.747
NCI-H2009	0.996	1.11	0.981	0.727	1.01	0.969	0.961	0.985	0.934	1.05	0.817	0.883	1.08	0.955	1.31	1.24	1.22	0.802
NCI-H647	1.07	1.08	1.08	0.9	0.912	0.831	0.812	0.955	0.864	0.761	–	0.2	0.821	0.809	1.21	1.23	0.926	1.14
NCI-H661	1	1.06	1.06	0.928	1.04	0.962	1.04	1.02	1	0.63	0.753	0.625	0.747	0.719	0.676	0.718	0.893	0.792
